Data from patent publication US20010053783A1, “PHARMACEUTICAL COMPOUNDS” (priority 1997, published 2001).

Molecular target: human 2A receptor (5-HT2A) (Homo sapiens, UniProt P28223)
Test: 5-HT2A receptor binding, displacement of [3H] ketanserin (Nelson et al.)
Conditions: human 2A receptor binding, versus 5-fluoroindolyl propyl comparator
Description: As mentioned above, the compounds of the invention are active at the serotonin, 5-HT2A, receptor.

Sequence of human 2A receptor (5-HT2A) (P28223 whole entry): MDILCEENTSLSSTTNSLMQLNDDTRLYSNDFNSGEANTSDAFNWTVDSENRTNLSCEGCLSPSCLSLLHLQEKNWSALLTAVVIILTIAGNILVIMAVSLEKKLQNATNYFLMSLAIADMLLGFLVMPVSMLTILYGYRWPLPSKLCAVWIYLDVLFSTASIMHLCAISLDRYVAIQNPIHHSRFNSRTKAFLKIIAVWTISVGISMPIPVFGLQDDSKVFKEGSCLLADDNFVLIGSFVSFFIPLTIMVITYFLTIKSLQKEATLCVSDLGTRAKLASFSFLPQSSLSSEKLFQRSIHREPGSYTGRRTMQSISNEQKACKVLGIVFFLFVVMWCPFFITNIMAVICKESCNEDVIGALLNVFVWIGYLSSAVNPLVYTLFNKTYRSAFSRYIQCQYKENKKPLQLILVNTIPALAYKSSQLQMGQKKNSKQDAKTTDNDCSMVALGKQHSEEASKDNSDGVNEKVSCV

## O=S1(=O)N(CCN2CC=C(c3c[nH]c4cc(F)ccc34)CC2)c2cccc3c2N1CCC3 [1-{2-[4-(6-Fluoro-[1H]-indol-3-yl)-1,2,3,6-tetrahydro-1-pyridinyl]-1-ethyl}-5,6-dihydro-1H,4H-1,2,5-thiadiazolo[4,3,2-ij]quinoline-2,2-dioxide]
  times more active than the closest structurally related compound of EP-A 0 433 149: approximately twenty-eight
